Reference: ChEMBL document CHEMBL1157111, “Oridamycins A and B, anti-Saprolegnia parasitica indolosesquiterpenes isolated from Streptomyces sp. KS84” (2010)
≈ marks a conversion by molar mass, not a printed value. Calls of active or inactive are those of the source. The rule behind the calls is not given here.

Assays:
[1] = system: Phoma; assay: Antifungal activity against Phoma CCF3818 assessed as inhibition of hyphae elongation after 24 hrs; type: functional; conditions: CCF3818, 24 h
[2] = system: Saccharomyces cerevisiae; assay: Antifungal activity against Saccharomyces cerevisiae at 1000 ug/ml after 24 hrs; type: functional, organism-based
[3] = system: Saprolegnia parasitica; assay: Antifungal activity against Saprolegnia parasitica assessed as inhibition of hyphae elongation after 24 hrs; type: functional

Compound | MIC [1] [µg/mL] | MIC [2] | MIC [3] [µg/mL]
C[C@@H]1C[C@@H]([C@H](O)CC2CC(=O)NC(=O)C2)C(=O)[C@@H](C)C1 [CYCLOHEXIMIDE] | 25 (≈ 88.9 µM) | – | –
C[C@]1(C(=O)O)[C@@H](O)CC[C@]2(C)c3cc4c(cc3CC[C@@H]12)[nH]c1ccccc14 [ORIDAMYCIN A] | 242 (≈ 666 µM) | inactive | 3 (≈ 8.25 µM)
